Where “and” joins values, the source holds several entries; their conditions need not be identical. Equal values may be shown once.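 Method: 48-hour compound exposure of cells in 96-well plates, five concentrations, linear interpolation of endpoints. GI50 is the concentration that inhibits growth by half. At the TGI there is no net growth.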
Experiments:
Experiment in all cases: inhibition of tumour cell growth, NCI panel, 48 h
[1] = tested on: TK-10 renal
[2] = tested on: SF-268 CNS
[3] = tested on: MOLT-4 leukemia
[4] = tested on: OVCAR-4 ovarian
[5] = tested on: OVCAR-8 ovarian
[6] = tested on: HCC-2998 colon
[7] = tested on: NCI-H226 lung
[8] = tested on: CAKI-1 renal
[9] = tested on: OVCAR-5 ovarian
[10] = tested on: SR leukemia

Compound	TGI [1] [µM]	TGI [2]	TGI [3]	TGI [4] [µM]	TGI [5]	TGI [6]	TGI [7]	TGI [8]	TGI [9] [µM]	TGI [10] [µM]	GI50 [1] [µM]	GI50 [2] [µM]	GI50 [3] [µM]	GI50 [4] [µM]	GI50 [10] [nM]	GI50 [5] [µM]	GI50 [8] [µM]	GI50 [9]	GI50 [7] [µM]	GI50 [6] [nM]
COP1(=O)CC2C(Cl)(Cl)C2(C)C1 (configuration not stated)	> 100	> 100 µM	> 100 µM	> 100	> 100 µM	> 100 µM	> 100 µM	–	–	–	–	–	–	–	–	–	–	–	–	–
CC(=O)NC1=N/C(=C/c2cc([N+](=O)[O-])ccc2O)CN1C	> 100	–	> 100 µM	> 100	> 100 µM	> 100 µM	> 100 µM	> 100 µM	> 100	–	–	–	–	–	–	–	–	–	–	–
CC1CC(c2ccccc2)=Nc2ccccc2S1(=O)=O (configuration not stated)	47.7	31.4 µM	33.3 µM	38.3	43.9 µM	19.5 µM	–	48.5 µM	35.7	–	–	–	–	–	–	–	–	–	–	–
C=CCNC(=S)N1CC(C)C(=O)Nc2ccccc21 (configuration not stated)	> 100	> 100 µM	> 100 µM	> 100	> 100 µM	–	> 100 µM	–	> 100	> 100	–	–	–	–	–	–	–	–	–	–
CCN(CC)CCNc1c(OC)cc(C)c2sc3ccccc3c(=O)c12	21	25.7 µM	4.58 µM	14.8	26.1 µM	–	12.8 µM	20.6 µM	13.4	5.33	–	–	–	–	–	–	–	–	–	–
CC(=O)Oc1cc(C)ccc1[C@]1(C)CC[C@H](C)/C1=C\Br	12.5	17.9 µM	22.8 µM	12.6	21 µM	–	–	14.3 µM	19.5	12.8	3.6	4.76	5.22	2.87	2720	5.05	3.53	6.9 µM	–	–
Cc1nc(N)sc1C(=O)/C=C/c1ccc(/C=C/C(=O)c2sc(NC(=O)CCCCCCCCC(=O)Nc3nc(C)c(C(=O)/C=C/c4ccc(/C=C/C(=O)c5sc(N)nc5C)cc4)s3)nc2C)cc1	> 100	> 100 µM	> 100 µM	> 100	> 100 µM	> 100 µM	–	> 100 µM	> 100	> 100	–	–	–	–	–	–	–	–	–	–
Oc1ccc(Br)cc1Sc1cc(Br)ccc1O	–	26.7 µM	38.4 µM	18.1	24.7 µM	–	41.9 µM	45.5 µM	32.1	25.3	–	7.68	7.37	4.72	5390	5.89	18.7	15.8 µM	18.1	–
COC(=O)c1c(-c2ccccc2)cc2c3cc(-c4ccccc4)c(C(=O)OC)n3c3ccccc3n12	> 100	> 100 µM	> 100 µM	> 31.6	> 100 µM	> 100 µM	> 100 µM	> 100 µM	> 100	–	–	–	–	–	–	–	–	–	–	–
CCOC(=O)CCC(=O)C1c2cccc(O)c2C(=O)c2c(O)cccc21	4.76	–	13.7 µM	1.86	3.4 µM	2.31 µM	–	4.99 µM	3.38	7.29	–	–	–	–	–	–	–	–	–	–
O=C(C(O)c1cn(Cc2ccccc2)c2ccccc12)N1CCCCC1 (configuration not stated)	> 10	> 100 µM	> 100 µM	–	> 100 µM	> 100 µM	> 100 µM	–	> 100	> 100	–	–	–	–	–	–	–	–	–	–
COc1cc([C@H](C)c2ccc3ccccc3c2)cc(OC)c1OC	> 100	> 100 µM	> 100 µM	> 100	65.1 µM	> 100 µM	> 100 µM	–	> 100	> 100	12.2	1.67	0.504	1.17	52.8	0.499	–	0.997 µM	2.94	1240
COC(=O)CCC/C=C\C[C@H]1C=CC(=O)/C1=C/C[C@@H](O)CCc1cccc(C(F)(F)F)c1	12.4	11.4 µM	6.46 µM	14.1	11.8 µM	3.35 µM	–	14.7 µM	12.7	5.53	4.49	3.09	2.29	3.47	975	3.31	3.89	3.79 µM	–	1830
N#CCCc1nc2ccc(Br)cc2c(=O)n1CCO	> 100	> 100 µM	> 100 µM	> 100	> 100 µM	> 100 µM	> 100 µM	> 100 µM	–	–	–	–	–	–	–	–	–	–	–	–
COc1cc(C2c3cc4c(cc3[C@@H](Nc3ccc(C(=O)O)cc3)C3COC(=O)[C@H]23)OCO4)cc(OC)c1O (some centres not stated)	> 100	69.1 µM and > 17.5 µM	5.47 µM and 2.66 µM	> 100	54 µM and > 17.5 µM	53.8 µM and > 17.5 µM	15.8 µM and 13.9 µM	47.1 µM and > 17.5 µM	> 100	–	–	–	–	–	–	–	–	48.3 µM and > 17.5 µM	–	–
CN(C)CCNc1nc2ccccc2c2c1c1c(n2Cc2ccccc2)-c2ccccc2C1=O	–	28.6 µM	18.5 µM	27	52.2 µM	–	50.3 µM	37.1 µM	27.8	20.9	–	12.2	4.77	12.6	2850	6.14	18	12.3 µM	20.2	–
CCCCCCC/C=C/[C@H]1O[C@]23C(=O)C[C@@]4(C[C@@H](OC5OC(CO)C(O)C(O)C5O)C[C@@H]4[C@H]2C=C1C)OC3=O (some centres not stated)	12.6	11.1 µM	14.4 µM	8.07	> 33.3 µM	9.39 µM	13.4 µM	–	14.7	13.6	6.14	5.12	1.31	3.37	1350	6.08	–	6.06 µM	5.85	4440
O=C(Nc1ccccc1)c1ccc(Cl)c([N+](=O)[O-])c1	> 100	–	21.8 µM	–	39.6 µM	–	68.4 µM	40.4 µM	–	–	–	–	–	–	–	–	–	–	–	–
CC(=O)N/C(=C\c1ccc(/C=C(\NC(C)=O)c2nc3ccc(Cl)cc3[nH]2)cc1)c1nc2ccccc2[nH]1	> 100	> 100 µM	> 100 µM	–	> 100 µM	–	> 100 µM	> 100 µM	> 100	> 100	–	–	–	–	–	–	–	–	–	–
